Source: patent US12521329B2, “Antimicrobial mixture containing 4-(3-ethoxy-4-hydroxyphenyl) butan-2-one, and cosmetic composition containing same” (L'OREAL, priority 2017, dated 2026)
Values belong to the compound of their own block, whether it stands above or below them.

What was measured:
Assay in all cases: MIC / synergy (FIC index) microplate growth test, optical density 620 nm
Type in all cases: cell-based
[1] = system: Candida albicans ATCC 10231
Method: The microbial strain Candida albicans ATCC 10231 and a double-concentration Sabouraud broth liquid culture medium were used.
(§1) A 96-well microplate at an incubation temperature of 32.5° C. is used.
(§2) The incubation time of the microplate for the abovementioned two strains is: • from 18 to 24 h aerobically for Candida albicans and Staphylococcus aureus. • from 24 hours to 48 hours aerobically for Aspergillus niger Tests
(§3) A 10% (weight/volume) stock solution was prepared by mixing 1 g of compound in 9 ml of aqueous 1‰ agar solution. Successive dilutions were made with the 1‰ agar solution.
(§4) 50 μl of each of the daughter solutions obtained containing compound A or B are added to the microplate wells. 100 μl of Sabouraud liquid nutrient broth inoculated at double concentration with the Candida albicans strain and 50 μl of aqueous 1‰ agar solution are also added thereto.
as §4, with “and 50 μl of each of the daughter solutions obtained containing compound” for “or”, “strain” for “strain and 50 μl of aqueous 1‰ agar solution”
(§5) A positive microbial growth control was also prepared. The positive microbial growth control corresponds to the mixture of 100 μl of aqueous 1‰ agar solution with 100 μl of Sabouraud liquid nutrient broth inoculated at double concentration with the Candida albicans strain in the absence of compounds A and B.
(§6) An absorbance control was performed in parallel on compounds A and B alone. This control corresponds to 100 μl of double concentration sterile Sabouraud liquid nutrient broth+100 μl of double concentration compound A or B.
(§7) In the three cases (absorbance control, growth control and test), the final volume present in each of the microplate wells is 200 μl.
(§8) In the two cases (test and control), the inoculum represents the concentration of the Candida albicans strain present in the final volume of the wells (200 μl) and is between 2 and 6×10^5 cfu/ml of Candida albicans.
(§9) The minimum inhibitory concentration (MIC) of each compound A and B alone and in combination was determined in a known manner by means of optical density measurements at a wavelength of 620 nm.

[2] = system: Staphylococcus aureus ATCC 6538; conditions: Example 1
Method: The microbial strain Staphylococcus aureus ATCC 6538 and a double-concentration nutrient broth liquid culture medium were used.
as §1, §2, §3, §4
as §4, with “and 50 μl of each of the daughter solutions obtained containing compound” for “or”, “strain” for “strain and 50 μl of aqueous 1‰ agar solution”
as §5, §6, §7, §8, §9
The test as described above (tests, absorbance control and growth control) was performed again to test the combination A+B on the Staphylococcus aureus strain and on the Aspergillus niger strain as appropriate.

[3] = system: Aspergillus niger ATCC 6275; conditions: Example 5
Description: FIC Index=(MIC of A with B/MIC of A)+(MIC of B with A/MIC of B) with: • MIC of A with B: minimum concentration of product A in the combination A+B which makes it possible to obtain an inhibitory effect; • MIC of B with A: minimum concentration of product B in the combination A+B which makes it possible to obtain an inhibitory effect; • MIC of A: minimum inhibitory concentration of product A alone; • MIC of B: minimum inhibitory concentration of product B alone. […] A 96-well microplate at an incubation temperature of 32.5° C. is used. The incubation time of the microplate for the abovementioned two strains is: • from 18 to 24 h aerobically for Candida albicans and Staphylococcus aureus. • from 24 hours to 48 hours aerobically for Aspergillus niger Tests […] Successive dilutions were made with the 1‰ agar solution. 50 μl of each of the daughter solutions obtained containing compound A or B are added to the microplate wells. 100 μl of Sabouraud liquid nutrient broth inoculated at double concentration with the Candida albicans strain and 50 μl of aqueous 1‰ agar solution are also added thereto. 50 μl of each of the daughter solutions obtained containing compound A and 50 μl of each of the daughter solutions obtained containing compound B are added to the microplate wells. 100 μl of Sabouraud liquid nutrient broth inoculated at double concentration with the Candida albicans strain are also added thereto. A positive microbial growth control was also prepared. […] An absorbance control was performed in parallel on compounds A and B alone. This control corresponds to 100 μl of double concentration sterile Sabouraud liquid nutrient broth+100 μl of double concentration compound A or B. […] In the two cases (test and control), the inoculum represents the concentration of the Candida albicans strain present in the final volume of the wells (200 μl) and is between 2 and 6×10^5 cfu/ml of Candida albicans. […] The test as described above (tests, absorbance control and growth control) was performed again to test the combination A+B on the Staphylococcus aureus strain and on the Aspergillus niger strain as appropriate.

- % MIC of A alone ([1]; Example 1, growth <= 20%, or even < 25%): 0.2%
- % MIC A ([1]; Example 2, A alone): 0.1%
- % MIC of A alone ([1]; Example 3): 0.2%
- % MIC of A alone ([1]; Example 4): 0.2%
- % MIC of A alone ([1]; Example 5): 0.1%
- % MIC of A alone ([2]; growth <= 20%, or even < 25%): 0.5%
- % MIC of A alone [3]: 0.25%
SMILES: CCOc1cc(CCC(C)=O)ccc1O [A, 4-(3-ethoxy-4-hydroxyphenyl)butan-2-one]
- microbial growth percentage ([1]; Example 1, 0.025 weight % A alone): 84%
- microbial growth percentage ([1]; Example 1, 0.05 weight % A alone): 71%
- microbial growth percentage ([1]; Example 1, 0.1 weight % A alone): 48%
- microbial growth percentage ([1]; Example 1, 0.2 weight % A alone): 10%
- microbial growth percentage ([1]; Example 2, 0.025 weight % A alone): 52%
- microbial growth percentage ([1]; Example 2, 0.05 weight % A alone): 31%
- microbial growth percentage ([1]; Example 2, 0.1 weight % A alone): 18%
- microbial growth percentage ([1]; Example 3, 0.025 weight % A alone): 71%
- microbial growth percentage ([1]; Example 3, 0.05 weight % A alone): 65%
- microbial growth percentage ([1]; Example 3, 0.1 weight % A alone): 44%
- microbial growth percentage ([1]; Example 3, 0.2 weight % A alone): 4%
- microbial growth percentage ([1]; Example 4, 0.025 weight % A alone): 83%
- microbial growth percentage ([1]; Example 4, 0.05 weight % A alone): 71%
- microbial growth percentage ([1]; Example 4, 0.1 weight % A alone): 46%
- microbial growth percentage ([1]; Example 4, 0.2 weight % A alone): 6%
- microbial growth percentage ([1]; Example 5, 0.025 weight % A alone): 56%
- microbial growth percentage ([1]; Example 5, 0.05 weight % A alone): 39%
- microbial growth percentage ([1]; Example 5, 0.1 weight % A alone): 17%
- microbial growth percentage ([2]; 0.0625 weight % A alone): 87%
- microbial growth percentage ([2]; 0.125 weight % A alone): 77%
- microbial growth percentage ([2]; 0.25 weight % A alone): 78%
- microbial growth percentage ([2]; 0.5 weight % A alone): 4%
- microbial growth percentage ([3]; 0.0625 weight % A alone): 85%
- microbial growth percentage ([3]; 0.125 weight % A alone): 43%
- microbial growth percentage ([3]; 0.25 weight % A alone): 4%

SMILES: Cc1cc(CC(C)CC(C)(C)C)n(O)c(=O)c1.NCCO (centres unmarked) [B2, piroctone olamine, reference compound]
- microbial growth percentage ([1]; Example 2, 0.00125 weight % B2 alone): 35%
- microbial growth percentage ([1]; Example 2, 0.0025 weight % B2 alone): 0%

SMILES: O=C1C(N(CO)C(=O)NCO)N(CO)C(=O)N1CO (centres unmarked) [B3, 1-[1,3-bis(hydroxymethyl)-2,5-dioxoimidazolidin-4-yl]-1,3-bis(hydroxymethyl)urea]
- % MIC of B3 alone ([1]; Example 3): 0.125%
- microbial growth percentage ([1]; Example 3, 0.0625 weight % B3 alone): 55%
- microbial growth percentage ([1]; Example 3, 0.125 weight % B3 alone): 10%

- % MIC of B4 alone ([1]; Example 4): 0.005%
SMILES: N=C(N)c1ccc(OCCCCCCOc2ccc(C(=N)N)cc2)cc1 [B4, hexamidine diisethionate, reference compound]
- microbial growth percentage ([1]; Example 4, 0.00125 weight % B4 alone): 78%
- microbial growth percentage ([1]; Example 4, 0.0025 weight % B4 alone): 59%
- microbial growth percentage ([1]; Example 4, 0.005 weight % B4 alone): 3%
